Source: US6974806B2, “Lipid-rich plaque inhibitors” (Takeda Pharmaceutical Company Limited, priority 2000, dated 2005)

Row | SMILES | melting point
1 | COc1cccc(OC)c1NC(=O)Cc1c(-c2ccccc2)c2cc3c(cc2oc1=O)CCC3 [Example 1, N-(2,6-dimethoxyphenyl)-2-(2-oxo-4-phenyl-2,6,7,8-tetrahydrocyclopenta[g]chromen-3-yl)acetamide] | 213 to 215 °C
2 | CC(C)c1cccc(C(C)C)c1NC(=O)Cc1c(-c2ccccc2)c2cc3c(cc2oc1=O)CCC3 [Example 3] | 261 to 263 °C
3 | CCc1cccc(CC)c1NC(=O)Cc1c(-c2ccccc2)c2cc3c(cc2oc1=O)CCC3 [Example 4] | 279 to 281 °C
4 | COc1cccc(C)c1NC(=O)Cc1c(-c2ccccc2)c2cc3c(cc2oc1=O)CCC3 [Example 5] | 232 to 237 °C
5 | CCc1ccccc1NC(=O)Cc1c(-c2ccccc2)c2cc3c(cc2oc1=O)CCC3 [Example 6] | 234 to 237 °C
6 | COc1cccc(O)c1NC(=O)Cc1c(-c2ccccc2)c2cc3c(cc2oc1=O)CCC3 [Example 9] | 179 to 181 °C
7 | COc1cc(O)cc(OC)c1NC(=O)Cc1c(-c2ccccc2)c2cc3c(cc2oc1=O)CCC3 [Example 10] | 160 °C (dec.)
8 | COc1cc(O)c(NC(=O)Cc2c(-c3ccccc3)c3cc4c(cc3oc2=O)CCC4)c(OC)c1 [Example 11] | 170 to 172 °C
9 | O=C(Cc1c(-c2ccccc2)c2cc3c(cc2oc1=O)CCC3)Nc1c(F)cc(F)cc1F [Example 17] | 247 to 249 °C
10 | O=C(Cc1c(-c2ccccc2)c2cc3c(cc2oc1=O)CCC3)Nc1c(F)cccc1C(F)(F)F [Example 18] | 194 to 196 °C
11 | O=C(Cc1c(-c2ccccc2)c2cc3c(cc2oc1=O)CCC3)Nc1ccc(Cl)cc1OC(F)(F)F [Example 19] | 189 to 191 °C
12 | Cc1cc2oc(=O)c(CC(=O)Nc3c(C(C)C)cccc3C(C)C)c(-c3ccccc3Cl)c2cc1Cl [Example 25] | 245 to 246 °C
13 | Cc1cc2oc(=O)c(CC(=O)Nc3c(C(C)C)cccc3C(C)C)c(-c3ccccc3)c2cc1C [Example 31] | 252 to 253 °C

Other lines, results leading:

Row | melting point | SMILES
14 | 216 to 219 °C | CCOc1cccc(OCC)c1NC(=O)Cc1c(-c2ccccc2)c2cc3c(cc2oc1=O)CCC3 [Example 2]
15 | 237 to 239 °C | COc1cc(C)cc(OC)c1NC(=O)Cc1c(-c2ccccc2)c2cc3c(cc2oc1=O)CCC3 [Example 8]
16 | 191 to 194 °C | O=C(Cc1c(-c2ccccc2)c2cc3c(cc2oc1=O)CCC3)Nc1ccccc1OC(F)(F)F [Example 12]
17 | 224 to 226 °C | O=C(Cc1c(-c2ccccc2)c2cc3c(cc2oc1=O)CCC3)Nc1c(OC2CCCC2)cccc1OC1CCCC1 [Example 14]
18 | 257 to 259 °C | O=C(Cc1c(-c2ccccc2)c2cc3c(cc2oc1=O)CCC3)Nc1c(Cl)cncc1Cl [Example 15, N-(3,5-dichloro-4-pyridyl)-2-(2-oxo-4-phenyl-2,6,7,8-tetrahydrocyclopenta[g]chromen-3-yl)acetamide]
19 | 186 to 187 °C | O=C(Cc1c(-c2ccccc2)c2cc3c(cc2oc1=O)CCC3)Nc1ccc(F)cc1C(F)(F)F [Example 20]
20 | 231 to 232 °C | COc1cccc(OC)c1NC(=O)Cc1c(-c2ccccc2)c2cc(Cl)c(C)cc2oc1=O [Example 22]
21 | 176 to 177 °C | COc1cccc(OC)c1NC(=O)Cc1c(-c2ccccc2C)c2cc(Cl)c(C)cc2oc1=O [Example 23]
22 | 235 to 236 °C | CCOc1cccc(OCC)c1NC(=O)Cc1c(-c2ccccc2)c2cc(Cl)c(C)cc2oc1=O [Example 24]
23 | 250 to 251 °C | CCc1cccc(CC)c1NC(=O)Cc1c(-c2ccccc2)c2cc(Cl)c(C)cc2oc1=O [Example 26]
24 | 230 to 231 °C | CCOc1cccc(OCC)c1NC(=O)Cc1c(-c2ccccc2)c2cc(C)c(C)cc2oc1=O [Example 29]
25 | 259 to 260 °C | CCc1cccc(CC)c1NC(=O)Cc1c(-c2ccccc2)c2cc(C)c(C)cc2oc1=O [Example 30]
26 | 249 to 250 °C | COc1cccc(OC)c1NC(=O)Cc1c(-c2ccccc2)c2cc(Cl)c(Cl)cc2oc1=O [Example 36]
